Laboratory results published in US4659741A, “β-[2-(halogenobenzyl)-phenoxy]-ethylamine derivatives” (Institut de Recherches Chimiques et Biologiques Appliquees …, priority 1983, dated 1987).
Values after ≈ are worked out from the molar mass of the structure shown. “Also recorded” adds a separate entry of the source. Where two headings read alike, the source gives them in different places.

Columns and labels:
Gram+ bacteriae = conditions: infectious diseases caused by Gram+ bacteriae; cited from earlier work
[1] = cited from earlier work
[2] = test system: Escherichia coli CIP 54.8; test: Minimal inhibiting concentration (MIC), Gram- strain (Table IV); format: cell-based; conditions: CIP54
Description: (§1) A certain number of compounds according to the invention are given non-restrictively by way of illustration in tables I, II and III hereinafter. The minimal inhibiting concentrations (MIC) of these compounds vis-a-vis a Gram+bacteria (Staphylococcus aureus London) a Gram-bacteria (Escherichia coli) and a fungus (Candida albicans) are given hereinafter in table IV. In table V are tabulated the MIC values of two compounds according to the invention which are particularly interesting [compound B 673 (example 26) and compound B 674 (example 29)] vis-a-vis several strains.
(§2) The strains used are those of the catalogues of the "Institut Pasteur" of Paris (abbreviation: CIP), the "Centre International de Distribution de Souches et d'Information sur les Types Microbiens de Lausanne" (abbreviation: La) and the "American Type Culture Collection" (abbreviation: ATCC).
G^- = Gram^- strain: Escherichia coli CIP 54.8

[3] = test system: Staphylococcus aureus London CIP A.238; test: Minimal inhibiting concentration (MIC), Gram+ strain (Table IV); format: cell-based; conditions: for MIC: Staphylococcus aureus
Description: as §1, §2
G^+ = Gram^+ strain: Staphylococcus aureus London CIP A.238

[4] = test system: Candida albicans CIP 1180; test: Minimal inhibiting concentration (MIC), fungus strain (Table IV); format: cell-based; conditions: for MIC C: Candida albicans CIP 1180; for MIC: Candida albicans, CIP1180, Candida albicans CIP 1180
Description: as §1, §2
C = fungus strain: Candida albicans CIP 1180

[5] = Toxicity, LD-50 mice (Table VI); conditions: for LD50: mouse, in vivo
[6] = test system: Streptococcus pyogenes la 147; test: MIC vis-a-vis several strains (Table V); format: cell-based; conditions: LA147
Description: as §1, §2

[7] = test system: Klebsiella pneumoniae la 433; test: MIC vis-a-vis several strains (Table V); format: cell-based; conditions: LA433
Description: as §1, §2

[8] = test system: Bacillus subtilis ATCC 6633; test: MIC vis-a-vis several strains (Table V); format: cell-based; conditions: ATCC6633
Description: as §1, §2

[9] = test system: Staphylococcus aureus ATCC 6538 P; test: MIC vis-a-vis several strains (Table V); format: cell-based; conditions: ATCC6538
Description: as §1, §2

[10] = test system: Neisseria meningitidis CIP 7310; test: MIC vis-a-vis several strains (Table V); format: cell-based; conditions: CIP7310
Description: as §1, §2

[11] = test system: Branhamella catarrhalis la 987; test: MIC vis-a-vis several strains (Table V); format: cell-based; conditions: Moraxella catarrhalis, LA987
Description: as §1, §2

[12] = test system: Corynebacterium diphteriae CIP A.102; test: MIC vis-a-vis several strains (Table V); format: cell-based; conditions: CIPA.102
Description: as §1, §2

[13] = test system: Listeria monocytogenes CIP 54153; test: MIC vis-a-vis several strains (Table V); format: cell-based; conditions: CIP54153
Description: as §1, §2

[14] = test system: Haemophilus influenzae CIP 5293; test: MIC vis-a-vis several strains (Table V); format: cell-based; conditions: CIP5293
Description: as §1, §2

[15] = test system: Streptococcus pyogenes CIP A.241; test: MIC vis-a-vis several strains (Table V); format: cell-based; conditions: CIPA.241
Description: as §1, §2

[16] = test system: Streptococcus pyogenes CIP 56.42; test: MIC vis-a-vis several strains (Table V); format: cell-based; conditions: CIP56
Description: as §1, §2

[17] = test system: Streptococcus pyogenes CIP 5641; test: MIC vis-a-vis several strains (Table V); format: cell-based; conditions: CIP5641
Description: as §1, §2

[18] = test system: Streptococcus faecalis CIP 53.152; test: MIC vis-a-vis several strains (Table V); format: cell-based; conditions: Enterococcus faecalis, CIP53
Description: as §1, §2

[19] = test system: Neisseria gonorrhoeae CIP A.52; test: MIC vis-a-vis several strains (Table V); format: cell-based; conditions: CIPA.52
Description: as §1, §2

[20] = test system: Diplococcus pneumoniae la 209; test: MIC vis-a-vis several strains (Table V); format: cell-based; conditions: Streptococcus pneumoniae, LA209
Description: as §1, §2

## CC(C)(C)CC(C)(C)c1ccc(O)c(Cc2ccc(Cl)cc2Cl)c1 [B.11, 2-(2,4-dichlorobenzyl)-4-(1,1,3,3-tetramethylbutyl)-phenol]
Gram+ bacteriae
  effectiveness in the treatment of infectious diseases: particularly effective in the treatment of infectious diseases caused by Gram+ bacteriae
[1]
  water solubility / dispersibility: not naturally water soluble nor water dispersible

## CCN(CC)CCOc1ccc(C)cc1Cc1ccc(Cl)cc1Cl [Example 1]
[2]
  MIC: 50 µg/mL (≈ 136 µM)
[3]
  MIC: 12.5 µg/mL (≈ 34.1 µM)

## CCc1ccc(OCCN(CC)CC)c(Cc2ccc(Cl)cc2Cl)c1 [Example 2]
[4]; listed as Ex 2
  MIC C: 64 μ g/ml
[3]; listed as Ex 2
  MIC G^+: 64 μ g/ml

## CCN(CC)CCOc1ccc(C(C)C)cc1Cc1ccc(Cl)cc1Cl [Example 3]
[4]
  MIC: 8 µg/mL (≈ 20.3 µM)
[3]; listed as Ex 3
  MIC G^+: 16 μ g/ml

## CCC(C)c1ccc(OCCN(CC)CC)c(Cc2ccc(Cl)cc2Cl)c1 (centres unmarked) [Example 4]
[4]; listed as Ex 4
  MIC C: 16 μ g/ml
[3]; listed as Ex 4
  MIC G^+: 32 μ g/ml

## CCN(CC)CCOc1ccc(C(C)(C)C)cc1Cc1ccc(Cl)cc1Cl [Example 5, β-[2-(2,4-dichlorobenzyl)-4-tertiobutylphenoxy]-N,N-diethyl-ethylamin]
[3]
  MIC: 50 µg/mL (≈ 122 µM)

## CCN(CC)CCOc1ccc(C(C)(C)CC)cc1Cc1ccc(Cl)cc1Cl [Example 6, β-[2-(2,4-dichlorobenzyl)-4-(1,1-dimethylpropyl)-phenoxy]-N,N-diethylethylamine]
[4]
  MIC: 16 µg/mL (≈ 37.9 µM)
[3]
  MIC: 8 µg/mL (≈ 18.9 µM)

## CCCCc1ccc(OCCN(CC)CC)c(Cc2ccc(Cl)cc2Cl)c1 [Example 7]
[4]
  MIC: 64 µg/mL (≈ 157 µM)
[2]
  MIC: 64 µg/mL (≈ 157 µM)
[3]
  MIC: 64 µg/mL (≈ 157 µM)

## CCCCCCc1ccc(OCCN(CC)CC)c(Cc2ccc(Cl)cc2Cl)c1 [Example 8]
[4]
  MIC: 64 µg/mL (≈ 147 µM)
[2]
  MIC: 64 µg/mL (≈ 147 µM)
[3]
  MIC: 64 µg/mL (≈ 147 µM)

## CCN(CC)CCOc1ccc(C(C)(C)CC(C)(C)C)cc1Cc1ccc(Cl)cc1Cl [Example 9]
[3]
  MIC: 25 µg/mL (≈ 53.8 µM)

## CC(C)c1ccc(OCCN(C)C)c(Cc2ccc(Cl)c(Cl)c2)c1 [Example 10]
[2]
  MIC: 64 µg/mL (≈ 175 µM)
[3]
  MIC: 16 µg/mL (≈ 43.7 µM)

## CCc1ccc(OCCN(CC)CC)c(Cc2ccc(Cl)cc2Cl)c1 [Example 11]
[4]; listed as Ex 11
  MIC C: 8 μ g/ml
Spasmolytic properties
  spasmolytic properties: beneficial spasmolytic properties
[3]; listed as Ex 11
  MIC G^+: 8 μ g/ml

## CCN(CC)CCOc1ccc(C(C)C)cc1Cc1ccc(Cl)cc1Cl [Example 12]
[4]; listed as Ex 12
  MIC C: 4 μ g/ml
Spasmolytic properties; listed as B 805
  spasmolytic properties: beneficial spasmolytic properties; also recorded: The most interesting compound, as spasmolytic agent
[3]; listed as Ex 12
  MIC G^+: 4 μ g/ml

## CCC(C)c1ccc(OCCN(CC)CC)c(Cc2ccc(Cl)cc2Cl)c1 (centres unmarked) [Example 13]
[4]; listed as Ex 13
  MIC C: 0.5 μ g/ml
Spasmolytic properties
  spasmolytic properties: beneficial spasmolytic properties
[3]; listed as Ex 13
  MIC G^+: 8 μ g/ml

## CCN(CC)CCOc1ccc(C(C)(C)CC)cc1Cc1ccc(Cl)cc1Cl.Cl [Example 14, β-[2-(2,4-dichlorobenzyl)-4-(1,1-dimethylpropyl)-phenoxy]-N,N-diethylethylamine hydrochloride]
[4]
  MIC: 4 µg/mL
[2]
  MIC: 64 µg/mL
Spasmolytic properties
  spasmolytic properties: beneficial spasmolytic properties
[3]
  MIC: 8 µg/mL

## CCN(CC)CCOc1ccc(C(C)(C)CC(C)(C)C)cc1Cc1ccc(Cl)cc1Cl [Example 15]
Spasmolytic properties
  spasmolytic properties: beneficial spasmolytic properties
[3]; listed as Ex 15
  MIC G^+: 16 μ g/ml

## CCC(C)(C)c1ccc(OCC[N+](C)(CC)CC)c(Cc2ccc(Cl)cc2Cl)c1.[I-] [Example 21, N,N-diethyl-N-{2-[2-(2,4-dichlorobenzyl)-4-(1,1-dimethylpropyl)-phenoxy]-ethyl}-N-methylammonium iodide]
[4]
  MIC: 0.5 µg/mL
[2]
  MIC: 8 µg/mL
[3]
  MIC: 0.125 µg/mL

## CC[N+](C)(CC)CCOc1ccc(C(C)(C)CC(C)(C)C)cc1Cc1ccc(Cl)cc1Cl [Example 22]
[4]
  MIC: 0.25 µg/mL
[2]
  MIC: 64 µg/mL
[3]
  MIC: 0.125 µg/mL

## CCCC[N+](CC)(CC)CCOc1ccc(C(C)(C)CC)cc1Cc1ccc(Cl)cc1Cl.[Br-] [Example 23, N,N-diethyl-N-{2-[2-(2,4-dichlorobenzyl)-4-(1,1-dimethylpropyl)-phenoxy]-ethyl}-N-butylammonium bromide]
[5]
  LD50: > 1000 mg/kg
[4]
  MIC: 0.25 µg/mL
[2]
  MIC: 4 µg/mL
[3]
  MIC: 0.06 µg/mL

## CCCC[N+](CC)(CC)CCOc1ccc(C(C)(C)CC(C)(C)C)cc1Cc1ccc(Cl)cc1Cl [Example 24]
[4]
  MIC: 1 µg/mL
[2]
  MIC: 16 µg/mL
[3]
  MIC: 0.015 µg/mL

## CC[N+](CC)(CCOc1ccc(C)cc1Cc1ccc(Cl)cc1Cl)Cc1ccccc1 [Example 26]
[5]
  LD50: > 1000 mg/kg
[4]
  MIC: 4 µg/mL
[2]
  MIC: 32 µg/mL
[3]
  MIC: 0.25 µg/mL
[6]
  MIC: 0.78 µg/mL
[7]
  MIC: 25 µg/mL
[8]
  MIC: 1.56 µg/mL
[9]
  MIC: 0.78 µg/mL
[10]
  MIC: 0.78 µg/mL
[11]
  MIC: 0.78 µg/mL
[12]
  MIC: 25 µg/mL
[13]
  MIC: 1.56 µg/mL
[14]
  MIC: 0.78 µg/mL
[15]
  MIC: 0.78 µg/mL
[16]
  MIC: 0.78 µg/mL
[17]
  MIC: 0.78 µg/mL
[18]
  MIC: 3.12 µg/mL
[19]
  MIC: 0.78 µg/mL
[20]
  MIC: 1.56 µg/mL

## CCc1ccc(OCC[N+](CC)(CC)Cc2ccccc2)c(Cc2ccc(Cl)cc2Cl)c1 [Example 27]
[5]
  LD50: 850 mg/kg
[4]
  MIC: 0.5 µg/mL
[2]
  MIC: 8 µg/mL
[3]
  MIC: 0.125 µg/mL

## CC[N+](CC)(CCOc1ccc(C(C)C)cc1Cc1ccc(Cl)cc1Cl)Cc1ccccc1 [Example 28]
[4]
  MIC: 0.25 µg/mL
[2]
  MIC: 8 µg/mL
[3]
  MIC: 0.015 µg/mL

## CC[N+](CC)(CCOc1ccc(C(C)(C)C)cc1Cc1ccc(Cl)cc1Cl)Cc1ccccc1 [Example 29, N,N-diethyl-N-{2-[2-(2,4-dichlorobenzyl)-tertiobutylphenoxy]-ethyl}-N-benzylammonium chloride]
[5]
  LD50: > 1000 mg/kg
[4]
  MIC: 0.125 µg/mL
[2]
  MIC: 4 µg/mL
[3]
  MIC: 0.015 µg/mL
[6]
  MIC: 0.78 µg/mL
[7]
  MIC: 6.25 µg/mL
[8]
  MIC: 0.78 µg/mL
[9]
  MIC: 0.78 µg/mL
[10]
  MIC: 0.78 µg/mL
[11]
  MIC: 0.78 µg/mL
[12]
  MIC: 3.12 µg/mL
[13]
  MIC: 0.78 µg/mL
[14]
  MIC: 0.78 µg/mL
[15]
  MIC: 0.78 µg/mL
[16]
  MIC: 0.78 µg/mL
[17]
  MIC: 0.78 µg/mL
[18]
  MIC: 0.78 µg/mL
[19]
  MIC: 0.78 µg/mL
[20]
  MIC: 0.78 µg/mL

## CCC(C)(C)c1ccc(OCC[N+](CC)(CC)Cc2ccccc2)c(Cc2ccc(Cl)cc2Cl)c1 [Example 30]
[5]
  LD50: > 1000 mg/kg
[4]
  MIC: 0.25 µg/mL
[2]
  MIC: 4 µg/mL
[3]
  MIC: 0.004 µg/mL

## CCCCc1ccc(OCC[N+](CC)(CC)Cc2ccccc2)c(Cc2ccc(Cl)cc2Cl)c1 [Example 31]
[5]
  LD50: > 1000 mg/kg
[4]
  MIC: 0.125 µg/mL
[2]
  MIC: 4 µg/mL
[3]
  MIC: 0.031 µg/mL

## CCCCCCc1ccc(OCC[N+](CC)(CC)Cc2ccccc2)c(Cc2ccc(Cl)cc2Cl)c1 [Example 32]
[4]
  MIC: 0.5 µg/mL
[2]
  MIC: 16 µg/mL
[3]
  MIC: 0.125 µg/mL

## CC[N+](CC)(CCOc1ccc(C(C)(C)CC(C)(C)C)cc1Cc1ccc(Cl)cc1Cl)Cc1ccccc1 [Example 33]
[4]
  MIC: 1 µg/mL
[3]
  MIC: 0.03 µg/mL

## CCCCCCCCCCCCCCCC[N+](C)(C)C [Example A-2, cetrymonium chloride, reference compound]
[5]
  LD50: 750 mg/kg

## benzalkonium chloride [Example A-1, reference compound]
[5]; mice, route not given
  LD-50 mice: 550 mg/kg
